Source: patent US20260062422A1 (Halda Therapeutics OpCo, Inc., priority 2022, published 2026)

Assays:
[1] = tested on: T-Rex 293 cell line SC3 cells having increased expression of androgen receptor protein due to exposure to doxycycline; experiment: Cellular growth inhibition, T-Rex 293 SC3 cells with doxycycline (androgen receptor induced), CellTiter-Glo; format: cell-based; conditions: 72 h, T-Rex 293 SC3 cells with 10 ng/mL doxycycline (increased androgen receptor expression)
Outline: (§1)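 Luminescence read-out (CellTiter-Glo 2.0) after 72 h compound exposure; GI50 by four-parameter nonlinear regression, baseline set at zero luminescence. SC3 cells, a doxycycline-inducible wild-type AR clone of T-Rex 293, were cultured ±10 ng/mL doxycycline in charcoal-dextran FBS medium.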

[2] = tested on: T-Rex 293 cell line SC3 cells lacking increased expression of androgen receptor protein; experiment: Cellular growth inhibition, T-Rex 293 SC3 cells without doxycycline, CellTiter-Glo; format: cell-based; conditions: 72 h, T-Rex 293 SC3 cells not exposed to doxycycline, CellTiter-Glo 2.0
Outline: as §1

[3] = tested on: VCaP cells; experiment: Cellular growth inhibition assay for VCaP cells, CellTiter-Glo; format: cell-based, human; conditions: Homo sapiens, VCaP, 72 h, 72 hours treatment, CellTiter-Glo 2.0
Outline: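 GI50 values come from four-parameter curve fits of luminescence data normalized to a zero baseline. Compound, in medium with 0.5% DMSO, was added one day after plating and left for 72 h before CellTiter-Glo 2.0 addition.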

[4] = tested on: T47D cells; experiment: Cellular growth inhibition assay for T47D cells, CellTiter-Glo; format: cell-based, human; conditions: Homo sapiens, T47D, 72 h, 72 hours treatment, CellTiter-Glo 2.0 cell viability
Outline: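 Growth inhibition as GI50, fitted with four parameters to CellTiter-Glo luminescence after 72 h of compound exposure (0.5% DMSO). Cells were T47D, grown in insulin-supplemented (0.2 units/mL) DMEM with 10% FBS and treated one day post-seeding.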

GI50 [3] [µM] | GI50 [4] [µM] | SMILES | GI50 [1] [µM] | GI50 [2] [µM]
< 0.5 | 0.5 to 1.5 | Cc1sc2c(c1C)C(c1ccc(OCCC3CCN(c4ncc(C(=O)N[C@H]5C(C)(C)[C@H](Oc6ccc(C#N)c(Cl)c6)C5(C)C)cn4)CC3)cc1)=NC(Cc1ncco1)c1nnc(C)n1-2 (stereo partly drawn) [Compound I-167] | < 0.5 | 0.5 to 1.5
> 3 | 0.5 to 1.5 | Cc1sc2c(c1C)C(c1ccc(OC3CN(CC4CCN(c5ncc(C(=O)N[C@H]6C(C)(C)[C@H](Oc7ccc(C#N)c(Cl)c7)C6(C)C)cn5)CC4)C3)cc1)=N[C@@H](Cc1ncco1)c1nnc(C)n1-2 [Compound I-168] | < 0.5 | > 3
< 0.5 | < 0.5 | Cc1sc2c(c1C)C(c1ccc(OC3CC4(CCN(c5ccc(C(=O)N[C@H]6C(C)(C)[C@H](Oc7ccc(C#N)c(Cl)c7)C6(C)C)cn5)CC4)C3)cc1)=N[C@@H](Cc1ncco1)c1nnc(C)n1-2 [Compound I-170] | < 0.5 | > 3
< 0.5 | > 3 | Cc1sc2c(c1C)C(c1ccc(O[C@H]3CC[C@]4(CCCN(c5ncc(C(=O)N[C@H]6C(C)(C)[C@H](Oc7ccc(C#N)c(Cl)c7)C6(C)C)cn5)C4)CC3)cc1)=N[C@@H](Cc1ncco1)c1nnc(C)n1-2 [Compound I-171] | < 0.5 | < 0.5
< 0.5 | < 0.5 | Cc1sc2c(c1C)C(c1ccc(O[C@H]3CCC4(CCN(c5ncc(C(=O)N[C@H]6C(C)(C)[C@H](Oc7ccc(C#N)c(Cl)c7)C6(C)C)cn5)CC4)C3)cc1)=N[C@@H](Cc1ncco1)c1nnc(C)n1-2 [Compound I-173] | < 0.5 | > 3
0.5 to 1.5 | < 0.5 | Cc1sc2c(c1C)C(c1ccc(O[C@@H]3CCC4(CCN(c5ncc(C(=O)N[C@H]6C(C)(C)[C@H](Oc7ccc(C#N)c(Cl)c7)C6(C)C)cn5)CC4)C3)cc1)=N[C@@H](Cc1ncco1)c1nnc(C)n1-2 [Compound I-174] | < 0.5 | < 0.5
< 0.5 | 0.5 to 1.5 | Cc1sc2c(c1C)C(c1ccc(O[C@H]3CC[C@]4(CCN(c5ncc(C(=O)N[C@H]6C(C)(C)[C@H](Oc7ccc(C#N)c(Cl)c7)C6(C)C)cn5)C4)C3)cc1)=N[C@@H](Cc1ncco1)c1nnc(C)n1-2 [Compound I-175] | < 0.5 | < 0.5
< 0.5 | < 0.5 | Cc1sc2c(c1C)C(c1ccc(O[C@H]3CC[C@@]4(CCN(c5ncc(C(=O)N[C@H]6C(C)(C)[C@H](Oc7ccc(C#N)c(Cl)c7)C6(C)C)cn5)C4)C3)cc1)=N[C@@H](Cc1ncco1)c1nnc(C)n1-2 [Compound I-176] | < 0.5 | 0.5 to 1.5
< 0.5 | < 0.5 | Cc1sc2c(c1C)C(c1ccc(O[C@@H]3CCC4(CCN(c5ncc(C(=O)N[C@H]6C(C)(C)[C@H](Oc7ccc(C#N)c(Cl)c7)C6(C)C)cn5)C4)C3)cc1)=N[C@@H](Cc1ncco1)c1nnc(C)n1-2 (stereo partly drawn) [Compound I-177] | < 0.5 | < 0.5
< 0.5 | < 0.5 | Cc1sc2c(c1C)C(c1ccc(O[C@H]3CC[C@]4(CCN(c5ncc(C(=O)N[C@H]6C(C)(C)[C@H](Oc7ccc(C#N)c(Cl)c7)C6(C)C)cn5)C4)CC3)cc1)=N[C@@H](Cc1ncco1)c1nnc(C)n1-2 [Compound I-178] | < 0.5 | < 0.5
< 0.5 | 0.5 to 1.5 | Cc1sc2c(c1C)C(c1ccc(O[C@H]3CC[C@@]4(CCN(c5ncc(C(=O)N[C@H]6C(C)(C)[C@H](Oc7ccc(C#N)c(Cl)c7)C6(C)C)cn5)C4)CC3)cc1)=N[C@@H](Cc1ncco1)c1nnc(C)n1-2 [Compound I-179] | < 0.5 | < 0.5
< 0.5 | < 0.5 | Cc1sc2c(c1C)C(c1ccc(O[C@H]3CCC4(C3)CN(c3ncc(C(=O)N[C@H]5C(C)(C)[C@H](Oc6ccc(C#N)c(Cl)c6)C5(C)C)cn3)C4)cc1)=N[C@@H](Cc1ncco1)c1nnc(C)n1-2 [Compound I-180] | < 0.5 | < 0.5
< 0.5 | < 0.5 | Cc1sc2c(c1C)C(c1ccc(O[C@H]3COC4(C3)CN(c3ncc(C(=O)N[C@H]5C(C)(C)[C@H](Oc6ccc(C#N)c(Cl)c6)C5(C)C)cn3)C4)cc1)=N[C@@H](Cc1ncco1)c1nnc(C)n1-2 [Compound I-181] | < 0.5 | < 0.5
< 0.5 | < 0.5 | Cc1sc2c(c1C)C(c1ccc(O[C@@H]3COC4(C3)CN(c3ncc(C(=O)N[C@H]5C(C)(C)[C@H](Oc6ccc(C#N)c(Cl)c6)C5(C)C)cn3)C4)cc1)=N[C@@H](Cc1ncco1)c1nnc(C)n1-2 [Compound I-182] | < 0.5 | < 0.5
< 0.5 | 0.5 to 1.5 | Cc1sc2c(c1C)C(c1ccc(O[C@H]3CCOC34CN(c3ncc(C(=O)N[C@H]5C(C)(C)[C@H](Oc6ccc(C#N)c(Cl)c6)C5(C)C)cn3)C4)cc1)=N[C@@H](Cc1ncco1)c1nnc(C)n1-2 [Compound I-183] | < 0.5 | < 0.5
< 0.5 | < 0.5 | Cc1sc2c(c1C)C(c1ccc(O[C@@H]3CCOC34CN(c3ncc(C(=O)N[C@H]5C(C)(C)[C@H](Oc6ccc(C#N)c(Cl)c6)C5(C)C)cn3)C4)cc1)=N[C@@H](Cc1ncco1)c1nnc(C)n1-2 [Compound I-184] | < 0.5 | < 0.5
< 0.5 | < 0.5 | Cc1sc2c(c1C)C(c1ccc(O[C@@H]3COC4(CCN(c5ncc(C(=O)N[C@H]6C(C)(C)[C@H](Oc7ccc(C#N)c(Cl)c7)C6(C)C)cn5)C4)C3)cc1)=N[C@@H](Cc1ncco1)c1nnc(C)n1-2 (stereo partly drawn) [Compound I-185] | < 0.5 | < 0.5
< 0.5 | 0.5 to 1.5 | Cc1sc2c(c1C)C(c1ccc(O[C@H]3CO[C@@]4(CCCN(c5ncc(C(=O)N[C@H]6C(C)(C)[C@H](Oc7ccc(C#N)c(Cl)c7)C6(C)C)cn5)C4)C3)cc1)=N[C@@H](Cc1ncco1)c1nnc(C)n1-2 [Compound I-186] | < 0.5 | < 0.5
< 0.5 | < 0.5 | Cc1sc2c(c1C)C(c1ccc(O[C@@H]3CO[C@]4(CCCN(c5ncc(C(=O)N[C@H]6C(C)(C)[C@H](Oc7ccc(C#N)c(Cl)c7)C6(C)C)cn5)C4)C3)cc1)=N[C@@H](Cc1ncco1)c1nnc(C)n1-2 [Compound I-187] | < 0.5 | < 0.5
< 0.5 | < 0.5 | Cc1sc2c(c1C)C(c1ccc(O[C@@H]3CO[C@@]4(CCCN(c5ncc(C(=O)N[C@H]6C(C)(C)[C@H](Oc7ccc(C#N)c(Cl)c7)C6(C)C)cn5)C4)C3)cc1)=N[C@@H](Cc1ncco1)c1nnc(C)n1-2 [Compound I-188] | < 0.5 | < 0.5
< 0.5 | < 0.5 | Cc1sc2c(c1C)C(c1ccc(OC3CC(CC4CCN(c5ncc(C(=O)N[C@H]6C(C)(C)[C@H](Oc7ccc(C#N)c(Cl)c7)C6(C)C)cn5)CC4)C3)cc1)=N[C@@H](Cc1ncco1)c1nnc(C)n1-2 (stereo partly drawn) [Compound I-189] | < 0.5 | > 3
< 0.5 | < 0.5 | Cc1sc2c(c1C)C(c1ccc(O[C@H]3C[C@H](OC4CCN(c5ncc(C(=O)N[C@H]6C(C)(C)[C@H](Oc7ccc(C#N)c(Cl)c7)C6(C)C)cn5)CC4)C3)cc1)=N[C@@H](Cc1ncco1)c1nnc(C)n1-2 [Compound I-190] | < 0.5 | > 3
< 0.5 | < 0.5 | Cc1sc2c(c1C)C(c1ccc(O[C@@H]3CCC4(C3)CN(c3ncc(C(=O)N[C@H]5C(C)(C)[C@H](Oc6ccc(C#N)c(Cl)c6)C5(C)C)cn3)C4)cc1)=N[C@@H](Cc1ncco1)c1nnc(C)n1-2 [Compound I-191] | < 0.5 | < 0.5
0.5 to 1.5 | 0.5 to 1.5 | Cc1sc2c(c1C)C(c1ccc(O[C@H]3CO[C@]4(CCCN(c5ncc(C(=O)N[C@H]6C(C)(C)[C@H](Oc7ccc(C#N)c(Cl)c7)C6(C)C)cn5)C4)C3)cc1)=N[C@@H](Cc1ncco1)c1nnc(C)n1-2 [Compound I-192] | < 0.5 | 0.5 to 1.5
0.5 to 1.5 | < 0.5 | Cc1sc2c(c1C)C(c1ccc(O[C@H]3C[C@@]4(CCCN(c5ncc(C(=O)N[C@H]6C(C)(C)[C@H](Oc7ccc(C#N)c(Cl)c7)C6(C)C)cn5)C4)C3)cc1)=N[C@@H](Cc1ncco1)c1nnc(C)n1-2 [Compound I-193] | < 0.5 | 0.5 to 1.5
< 0.5 | 0.5 to 1.5 | Cc1sc2c(c1C)C(c1ccc(O[C@H]3C[C@]4(CCCN(c5ncc(C(=O)N[C@H]6C(C)(C)[C@H](Oc7ccc(C#N)c(Cl)c7)C6(C)C)cn5)C4)C3)cc1)=N[C@@H](Cc1ncco1)c1nnc(C)n1-2 [Compound I-194] | < 0.5 | < 0.5
< 0.5 | < 0.5 | Cc1sc2c(c1C)C(c1ccc(O[C@H]3COC4(CCN(c5ncc(C(=O)N[C@H]6C(C)(C)[C@H](Oc7ccc(C#N)c(Cl)c7)C6(C)C)cn5)C4)C3)cc1)=N[C@@H](Cc1ncco1)c1nnc(C)n1-2 (stereo partly drawn) [Compound I-195] | < 0.5 | < 0.5
